The record followed here is publication PMC11843629, “Development of ketobenzothiazole-based peptidomimetic TMPRSS13 inhibitors with low nanomolar potency” (Journal of Enzyme Inhibition and Medicinal Chemistry, 2025).

One data set addresses T1, TMPRSS13 (Homo sapiens, UniProt Q9BYE2, K566A/R563A/R565A).
T1 construct: Shedding of the TMPRSS13 catalytic domain was detected for both constructs in the cell media; made in house; host or cells: Expi293F cells
T1 sequence (Q9BYE2 with tags, fused parts or gaps isoform Q9BYE2-6 limits assumed): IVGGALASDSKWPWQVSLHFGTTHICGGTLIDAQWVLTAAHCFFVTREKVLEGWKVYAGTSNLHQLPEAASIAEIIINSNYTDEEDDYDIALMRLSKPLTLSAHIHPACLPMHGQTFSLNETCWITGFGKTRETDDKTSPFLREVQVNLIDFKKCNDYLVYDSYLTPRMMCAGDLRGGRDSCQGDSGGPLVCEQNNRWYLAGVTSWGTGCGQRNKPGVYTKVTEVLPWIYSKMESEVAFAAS
Nature of the data set: In vitro inhibition assay, recombinant TMPRSS13-AFAAS-6His, Boc-RVRR-AMC. Format: biochemical. The note with it: dose-response curve, Cheng-Prusoff equation. Here is the method:
TMPRSS13-AFAAS-6His was expressed via the Expi293 Expression System Kit (Thermo Fisher Scientific, A14635) according to the manufacturer’s instructions and purified via IMAC chromatography. Briefly, Expi293F cells were transfected for 48 h with the TMPRSS13-AFAAS-6His construct, and media containing the shed recombinant protease was injected on a HisTrap Excel column (Cytiva, 17371206) via an ÄKTA Start protein purification system (Cytiva). The bound proteins were then eluted (20 mM sodium phosphate pH 7.4, 500 mM NaCl, and 500 mM imidazole), and the TMPRSS13-containing fractions were dialysed for 16 h at 4 °C in storage buffer (20 mM sodium phosphate pH 7.4, 150 mM NaCl, and 10% glycerol). Proteins were then concentrated via a 10 kDa Amicon Ultra centrifugal filter (Millipore Sigma, UFC8010) and stored at −80 °C.
(§1) Recombinant TMPRSS13-AFAAS-6His (this study) and matriptase[34] were expressed and purified as described. Recombinant human furin, Factor Xa (R&D Systems) and thrombin (MilliporeSigma) were obtained from commercial sources. Assays were performed in a buffer composed of 50 mM HEPES pH 7.4, 1 mM β-mercaptoethanol, 1 mM CaCl2 and 500 μg/ml BSA for furin and 50 mM HEPES pH 7.4, 150 mM NaCl and 0.1% BSA for other proteases. Assays were performed at room temperature using fluorogenic substrates (Boc-RVRR-AMC for furin and TMPRSS13, Boc-QAR-AMC for other proteases). The enzymatic activity was measured via fluorescence (excitation at 360 nm and emission at 460 nm) at room temperature using an HTX Synergy microplate reader (Agilent). Kis for TMPRSS13 and Factor Xa (FXa) were derived from IC50 dose–response curves using the Cheng-Prusoff equation[35] for reversible competitive inhibitors. For matripase, a plot of the enzyme velocity as a function of the inhibitor concentration was fitted with nonlinear regression analysis via the Morrison Ki equation[36] for competitive tight-binding inhibitors.

For another data set, the target named is T2, Factor Xa (Homo sapiens, UniProt P00742).
T2 construct: purchased R&D Systems
Nature of the data set: In vitro inhibition assay, Factor Xa, Boc-QAR-AMC. Format: biochemical. The note with it: Cheng-Prusoff equation. As for the experimental part:
as §1

The test system of a further data set is human trypsin. The experiment in a line: Proteolysis assay (stability) with human trypsin. Format: in vitro ADME. The note with it: human trypsin (isolated protease), pH 7.4, compound final conc. 10 µM, 37 °C. As for the experimental part:
For the proteolysis assay, human trypsin (#T6424, Sigma–Aldrich, Saint-Louis, Missouri, USA) was resuspended in 1 mM HCl and 20 mM CaCl2, pH 3, and diluted to a final concentration of 0.1 mg/ml in PBS buffer (pH 7.4, 10 mM PO43-, 150 mM NaCl). The control peptide R8 and the compounds of interest were added to a 96-well plate (37 °C) to a final concentration of 10 µM. Trypsin (0.1 µg/ml) was added to the wells for 0, 0.5, 1, 2, 4 and 6 h. The plate was quenched with AcN/EtOH (1:1) 1% formic acid and 0.25 mM N,N-dimethylbenzamide (IS) and centrifuged at 4 °C.

A short description of another data set: in vitro. Conditions: final conc. 0.2 mM, 37 °C; for half-life at 0.2 mM: male, Sprague-Dawley, rat, pooled rat plasma (K2EDTA), Mean half-life, Plasma. The text has this:
Adult male Sprague-Dawley rats, weighing between 225 and 300 g (Charles River Laboratories, St. Constant, Canada), were housed in groups of four per double-decker cage on Aspen shavings in a quiet environment. They were maintained under a 12-h light/dark cycle with unrestricted access to food and water. All experimental protocols received approval from the Animal Care Committee of the Université de Sherbrooke, adhering to the Canadian Council on Animal Care guidelines. The procedures also followed the ARRIVE guidelines (Animals in Research: Reporting In Vivo Experiments) and the United States NIH regulations (Ethics approval ID: 2022–3440). To evaluate the stability of compounds in plasma, 6 rats were anaesthetised with 2 L/min oxygen and 5% isoflurane, after which plasma was collected, pooled, and stored frozen until experiments were performed.
For evaluating plasma stability, rats were anaesthetised using a flow of 2 L/min of oxygen combined with 5% isoflurane. Blood was obtained via cardiac puncture from the left ventricle using a 20 G ½ needle, collected in pre-chilled Vacutainer K2EDTA tubes (367861), and maintained on wet ice. The blood was then centrifuged at 2000 xG for 15 min at 4 °C. Plasma samples were pooled from six rats, aliquoted, and stored at −80 °C. […] To terminate the reaction, 140 μL of a 1:1 acetonitrile-ethanol solution containing 0.25 mM N,N-dimethylbenzamide (used as an internal standard) was added. The resulting mixture was transferred onto an Impact Protein Precipitation filter plate (Phenomenex, California), with a 96-well UPLC plate positioned below to collect the filtrates. Both plates were centrifuged at 500 × g for 10 min at 4 °C. The filtrates were diluted with 30 μL of distilled water before analysis using an Acquity UPLC-MS system class H (column Acquity UPLC protein BEH C18 (2.1 mm × 50 mm), 1.7 μm particles, 130 Å pore size). The peptide’s half-life was determined from the degradation profile utilising the exponential one-phase decay function in GraphPad Prism 9. Mass spectra obtained at time points close to the calculated half-life were compared with those at 0 min (plasma inactivated prior to compound addition) to identify cleavage fragments.

T2 sequence (P00742 235-488 limits assumed): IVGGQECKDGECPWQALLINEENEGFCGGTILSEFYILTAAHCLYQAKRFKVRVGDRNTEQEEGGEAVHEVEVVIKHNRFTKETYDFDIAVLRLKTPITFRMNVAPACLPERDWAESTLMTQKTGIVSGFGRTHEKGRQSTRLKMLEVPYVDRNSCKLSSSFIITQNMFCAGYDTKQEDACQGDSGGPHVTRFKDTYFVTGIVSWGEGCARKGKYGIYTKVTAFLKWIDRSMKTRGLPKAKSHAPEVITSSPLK
T2 sequence (P00742 41-179 partner limits assumed): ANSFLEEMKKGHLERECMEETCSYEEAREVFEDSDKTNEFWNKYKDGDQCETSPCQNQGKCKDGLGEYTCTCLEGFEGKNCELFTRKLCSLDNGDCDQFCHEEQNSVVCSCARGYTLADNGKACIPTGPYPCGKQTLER

Usually Ki stands for a dissociation constant, usually derived from enzyme kinetics or from competition with a known ligand. One may read the half-life as the time needed for the level to fall by half in the phase considered. Lower therefore signals fast loss. Turning to `N=C(N)NCCCCC(=O)N[C@@H](CCC(N)=O)C(=O)N[C@@H](Cc1ccccc1)C(=O)N[C@@H](CCCNC(=N)N)C(=O)c1nc2ccccc2s1` [Compound N-0130, (H)-RQFR-Kbt], the inhibitory constant (Ki) was found to be 0.0246 µM on TMPRSS13 and 0.0482 ± 0.0037 µM at Factor Xa. The compound also gave a half-life at 10 µM with human trypsin of 105 h. In “in vitro”, this compound showed a half-life at 0.2 mM of 79.2 h. For the same compound, in “in vitro” (rat plasma (male)), the “Mean half-life, Plasma” value turned out to be 78.5 h.
For `N=C(N)NCCCCC(=O)N[C@@H](CCC(N)=O)C(=O)N[C@@H](CCc1ccccc1)C(=O)N[C@@H](CCCNC(=N)N)C(=O)c1nc2ccccc2s1` [Compound N-0430, (H)-RQhFR-Kbt], the inhibition constant Ki stood at 0.0053 µM on TMPRSS13 and 0.0569 ± 0.009 µM on Factor Xa. The compound further had a half-life at 10 µM in the data set on human trypsin of 29.5 h. The same compound gave a half-life at 0.2 mM in “in vitro” of 40.8 h.
